{"source": "patent US20070213332A1", "about": "“Prodrugs Of Substituted Amino Heterobicycles Which Modulate The Function Of The Vanilloid-1 Receptor (Vr1)” (priority 2004, published 2007)", "origin": "cited, not measured here", "biological_target": "VR1 (Rattus norvegicus, UniProt O35433)", "sequence (O35433 whole entry)": "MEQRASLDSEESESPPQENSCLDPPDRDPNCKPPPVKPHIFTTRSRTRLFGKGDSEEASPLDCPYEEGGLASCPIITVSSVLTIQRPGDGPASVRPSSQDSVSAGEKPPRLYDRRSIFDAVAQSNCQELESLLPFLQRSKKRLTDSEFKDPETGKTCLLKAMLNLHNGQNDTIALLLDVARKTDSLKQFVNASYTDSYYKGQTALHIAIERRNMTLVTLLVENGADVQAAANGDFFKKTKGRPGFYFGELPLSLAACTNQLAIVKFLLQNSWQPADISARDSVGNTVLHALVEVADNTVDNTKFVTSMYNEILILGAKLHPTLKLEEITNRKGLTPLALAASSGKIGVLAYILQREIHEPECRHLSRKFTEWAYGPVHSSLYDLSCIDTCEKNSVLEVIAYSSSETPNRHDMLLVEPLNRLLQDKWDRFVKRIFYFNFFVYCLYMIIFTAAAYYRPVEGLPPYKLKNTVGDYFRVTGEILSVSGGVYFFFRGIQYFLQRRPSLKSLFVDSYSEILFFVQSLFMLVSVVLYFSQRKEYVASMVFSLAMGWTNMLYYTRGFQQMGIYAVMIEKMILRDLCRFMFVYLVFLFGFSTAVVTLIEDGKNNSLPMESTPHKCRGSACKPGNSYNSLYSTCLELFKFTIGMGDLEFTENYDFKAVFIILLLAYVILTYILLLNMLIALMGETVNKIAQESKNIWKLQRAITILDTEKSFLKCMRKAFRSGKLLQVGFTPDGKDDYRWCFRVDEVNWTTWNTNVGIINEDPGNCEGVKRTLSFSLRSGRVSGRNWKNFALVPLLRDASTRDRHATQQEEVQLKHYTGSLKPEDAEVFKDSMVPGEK", "conditions": "Walpole et al., J. Med. Chem., 37:1942, 1994"}
{"molecule": "Oc1cc2c(cc1O)CN(C(=S)NCCc1ccc(Cl)cc1)CCC2", "note": "[capsazepine]", "values": [{"measurement": "IC50", "result": 420, "unit": "nM"}]}
